From patent US8192962B2, “Processes for detecting toxic substances” (Daikin Industries, Ltd., priority 2001, dated 2012)

Test system: Stress protein genes
Test: DNA chip mRNA expression in yeast, stress protein genes (Table 6)
Format: cell-based, Saccharomyces cerevisiae S288C
Outline: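 Values are treated/untreated fluorescence ratios from a whole-genome yeast DNA chip hybridized over 12 hours at 65° C with Cy3- or Cy5-labelled cDNA from poly(A) mRNA. Log-phase S288C yeast in YPD at 25° C had received a single toxic chemical for two hours, dosed to slow growth without killing.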

## [Cl][Cd][Cl] [(2), CdCl2]
Yeast gene YAL005C
  The level of expressed mRNA in the presence of chemical substance/The level of expressed mRNA in the absence of chemical substance: 1.6
Yeast gene YAL015C
  The level of expressed mRNA in the presence of chemical substance/The level of expressed mRNA in the absence of chemical substance: 1.1
Yeast gene YBL075C
  The level of expressed mRNA in the presence of chemical substance/The level of expressed mRNA in the absence of chemical substance: 4.3
Yeast gene YBL093C
  The level of expressed mRNA in the presence of chemical substance/The level of expressed mRNA in the absence of chemical substance: 2.0
Yeast gene YBR044C
  The level of expressed mRNA in the presence of chemical substance/The level of expressed mRNA in the absence of chemical substance: 1.4
Yeast gene YBR054W
  The level of expressed mRNA in the presence of chemical substance/The level of expressed mRNA in the absence of chemical substance: 1.8
Yeast gene YBR067C
  The level of expressed mRNA in the presence of chemical substance/The level of expressed mRNA in the absence of chemical substance: 2.5
Yeast gene YBR072W
  The level of expressed mRNA in the presence of chemical substance/The level of expressed mRNA in the absence of chemical substance: 17.4
Yeast gene YBR126C
  The level of expressed mRNA in the presence of chemical substance/The level of expressed mRNA in the absence of chemical substance: 1.9
Yeast gene YBR169C
  The level of expressed mRNA in the presence of chemical substance/The level of expressed mRNA in the absence of chemical substance: 2.1
Yeast gene YCL035C
  The level of expressed mRNA in the presence of chemical substance/The level of expressed mRNA in the absence of chemical substance: 2.3
Yeast gene YCR021C
  The level of expressed mRNA in the presence of chemical substance/The level of expressed mRNA in the absence of chemical substance: 1.4
Yeast gene YCR060W
  The level of expressed mRNA in the presence of chemical substance/The level of expressed mRNA in the absence of chemical substance: 0.7
Yeast gene YCR083W
  The level of expressed mRNA in the presence of chemical substance/The level of expressed mRNA in the absence of chemical substance: 2.8
Yeast gene YDL022W
  The level of expressed mRNA in the presence of chemical substance/The level of expressed mRNA in the absence of chemical substance: 2.6
Yeast gene YDL025C
  The level of expressed mRNA in the presence of chemical substance/The level of expressed mRNA in the absence of chemical substance: 5.0
Yeast gene YDR033W
  The level of expressed mRNA in the presence of chemical substance/The level of expressed mRNA in the absence of chemical substance: 1.3
Yeast gene YDR077W
  The level of expressed mRNA in the presence of chemical substance/The level of expressed mRNA in the absence of chemical substance: 1.0
Yeast gene YDR098C
  The level of expressed mRNA in the presence of chemical substance/The level of expressed mRNA in the absence of chemical substance: 1.4
Yeast gene YDR155C
  The level of expressed mRNA in the presence of chemical substance/The level of expressed mRNA in the absence of chemical substance: 1.5
Yeast gene YDR258C
  The level of expressed mRNA in the presence of chemical substance/The level of expressed mRNA in the absence of chemical substance: 2.3
Yeast gene YDR293C
  The level of expressed mRNA in the presence of chemical substance/The level of expressed mRNA in the absence of chemical substance: 0.9
Yeast gene YDR436W
  The level of expressed mRNA in the presence of chemical substance/The level of expressed mRNA in the absence of chemical substance: 0.9
Yeast gene YDR513W
  The level of expressed mRNA in the presence of chemical substance/The level of expressed mRNA in the absence of chemical substance: 2.5
Yeast gene YDR519W
  The level of expressed mRNA in the presence of chemical substance/The level of expressed mRNA in the absence of chemical substance: 3.2
Yeast gene YEL030W
  The level of expressed mRNA in the presence of chemical substance/The level of expressed mRNA in the absence of chemical substance: 0.9
Yeast gene YEL039C
  The level of expressed mRNA in the presence of chemical substance/The level of expressed mRNA in the absence of chemical substance: 0.7
Yeast gene YER042W
  The level of expressed mRNA in the presence of chemical substance/The level of expressed mRNA in the absence of chemical substance: 2.2
Yeast gene YER057C
  The level of expressed mRNA in the presence of chemical substance/The level of expressed mRNA in the absence of chemical substance: 2.0
Yeast gene YER103W
  The level of expressed mRNA in the presence of chemical substance/The level of expressed mRNA in the absence of chemical substance: 2.1
Yeast gene YER125W
  The level of expressed mRNA in the presence of chemical substance/The level of expressed mRNA in the absence of chemical substance: 1.1
Yeast gene YFL014W
  The level of expressed mRNA in the presence of chemical substance/The level of expressed mRNA in the absence of chemical substance: 5.1
Yeast gene YFL016C
  The level of expressed mRNA in the presence of chemical substance/The level of expressed mRNA in the absence of chemical substance: 1.0
Yeast gene YFL020C
  The level of expressed mRNA in the presence of chemical substance/The level of expressed mRNA in the absence of chemical substance: 1.1
Yeast gene YFR052W
  The level of expressed mRNA in the presence of chemical substance/The level of expressed mRNA in the absence of chemical substance: 1.6
Yeast gene YGL073W
  The level of expressed mRNA in the presence of chemical substance/The level of expressed mRNA in the absence of chemical substance: 2.1
Yeast gene YGL115W
  The level of expressed mRNA in the presence of chemical substance/The level of expressed mRNA in the absence of chemical substance: 0.6
Yeast gene YGL181W
  The level of expressed mRNA in the presence of chemical substance/The level of expressed mRNA in the absence of chemical substance: 0.9
Yeast gene YGR088W
  The level of expressed mRNA in the presence of chemical substance/The level of expressed mRNA in the absence of chemical substance: 1.2
Yeast gene YHL028W
  The level of expressed mRNA in the presence of chemical substance/The level of expressed mRNA in the absence of chemical substance: 0.8
Yeast gene YHL046C
  The level of expressed mRNA in the presence of chemical substance/The level of expressed mRNA in the absence of chemical substance: 1.7
Yeast gene YHR030C
  The level of expressed mRNA in the presence of chemical substance/The level of expressed mRNA in the absence of chemical substance: 0.8
Yeast gene YHR057C
  The level of expressed mRNA in the presence of chemical substance/The level of expressed mRNA in the absence of chemical substance: 1.2
Yeast gene YHR104W
  The level of expressed mRNA in the presence of chemical substance/The level of expressed mRNA in the absence of chemical substance: 4.1
Yeast gene YIL011W
  The level of expressed mRNA in the presence of chemical substance/The level of expressed mRNA in the absence of chemical substance: 0.5
Yeast gene YIL033C
  The level of expressed mRNA in the presence of chemical substance/The level of expressed mRNA in the absence of chemical substance: 1.3
Yeast gene YIR037W
  The level of expressed mRNA in the presence of chemical substance/The level of expressed mRNA in the absence of chemical substance: 2.2
Yeast gene YIR038C
  The level of expressed mRNA in the presence of chemical substance/The level of expressed mRNA in the absence of chemical substance: 3.5
Yeast gene YJL128C
  The level of expressed mRNA in the presence of chemical substance/The level of expressed mRNA in the absence of chemical substance: 1.4
Yeast gene YJL158C
  The level of expressed mRNA in the presence of chemical substance/The level of expressed mRNA in the absence of chemical substance: 0.6
Yeast gene YJL159W
  The level of expressed mRNA in the presence of chemical substance/The level of expressed mRNA in the absence of chemical substance: 1.3
Yeast gene YJL165C
  The level of expressed mRNA in the presence of chemical substance/The level of expressed mRNA in the absence of chemical substance: 0.8
Yeast gene YJR045C
  The level of expressed mRNA in the presence of chemical substance/The level of expressed mRNA in the absence of chemical substance: 1.9
Yeast gene YJR090C
  The level of expressed mRNA in the presence of chemical substance/The level of expressed mRNA in the absence of chemical substance: 1.0
Yeast gene YKL161C
  The level of expressed mRNA in the presence of chemical substance/The level of expressed mRNA in the absence of chemical substance: 0.8
Yeast gene YKL163W
  The level of expressed mRNA in the presence of chemical substance/The level of expressed mRNA in the absence of chemical substance: 1.4
Yeast gene YKL164C
  The level of expressed mRNA in the presence of chemical substance/The level of expressed mRNA in the absence of chemical substance: 1.1
Yeast gene YKL210W
  The level of expressed mRNA in the presence of chemical substance/The level of expressed mRNA in the absence of chemical substance: 1.7
Yeast gene YKR053C
  The level of expressed mRNA in the presence of chemical substance/The level of expressed mRNA in the absence of chemical substance: 2.0
Yeast gene YLL024C
  The level of expressed mRNA in the presence of chemical substance/The level of expressed mRNA in the absence of chemical substance: 1.6
Yeast gene YLL026W
  The level of expressed mRNA in the presence of chemical substance/The level of expressed mRNA in the absence of chemical substance: 2.9
Yeast gene YLL039C
  The level of expressed mRNA in the presence of chemical substance/The level of expressed mRNA in the absence of chemical substance: 1.0
Yeast gene YLL060C
  The level of expressed mRNA in the presence of chemical substance/The level of expressed mRNA in the absence of chemical substance: 4.2
Yeast gene YLR006C
  The level of expressed mRNA in the presence of chemical substance/The level of expressed mRNA in the absence of chemical substance: 0.7
Yeast gene YLR109W
  The level of expressed mRNA in the presence of chemical substance/The level of expressed mRNA in the absence of chemical substance: 2.9
Yeast gene YLR259C
  The level of expressed mRNA in the presence of chemical substance/The level of expressed mRNA in the absence of chemical substance: 1.0
Yeast gene YML007W
  The level of expressed mRNA in the presence of chemical substance/The level of expressed mRNA in the absence of chemical substance: 0.8
Yeast gene YML070W
  The level of expressed mRNA in the presence of chemical substance/The level of expressed mRNA in the absence of chemical substance: 1.7
Yeast gene YMR021C
  The level of expressed mRNA in the presence of chemical substance/The level of expressed mRNA in the absence of chemical substance: 0.7
Yeast gene YMR173W
  The level of expressed mRNA in the presence of chemical substance/The level of expressed mRNA in the absence of chemical substance: 3.6
Yeast gene YMR186W
  The level of expressed mRNA in the presence of chemical substance/The level of expressed mRNA in the absence of chemical substance: 1.4
Yeast gene YNL064C
  The level of expressed mRNA in the presence of chemical substance/The level of expressed mRNA in the absence of chemical substance: 1.8
Yeast gene YNL160W
  The level of expressed mRNA in the presence of chemical substance/The level of expressed mRNA in the absence of chemical substance: 3.7
Yeast gene YNL241C
  The level of expressed mRNA in the presence of chemical substance/The level of expressed mRNA in the absence of chemical substance: 2.5
Yeast gene YNR076W
  The level of expressed mRNA in the presence of chemical substance/The level of expressed mRNA in the absence of chemical substance: 1.3
Yeast gene YOL064C
  The level of expressed mRNA in the presence of chemical substance/The level of expressed mRNA in the absence of chemical substance: 2.1
Yeast gene YOL161C
  The level of expressed mRNA in the presence of chemical substance/The level of expressed mRNA in the absence of chemical substance: 1.1
Yeast gene YOR008C
  The level of expressed mRNA in the presence of chemical substance/The level of expressed mRNA in the absence of chemical substance: 0.8
Yeast gene YOR009W
  The level of expressed mRNA in the presence of chemical substance/The level of expressed mRNA in the absence of chemical substance: 0.8
Yeast gene YOR010C
  The level of expressed mRNA in the presence of chemical substance/The level of expressed mRNA in the absence of chemical substance: 0.7
Yeast gene YOR027W
  The level of expressed mRNA in the presence of chemical substance/The level of expressed mRNA in the absence of chemical substance: 2.4
Yeast gene YOR208W
  The level of expressed mRNA in the presence of chemical substance/The level of expressed mRNA in the absence of chemical substance: 1.0
Yeast gene YPL059W
  The level of expressed mRNA in the presence of chemical substance/The level of expressed mRNA in the absence of chemical substance: 0.9
Yeast gene YPL106C
  The level of expressed mRNA in the presence of chemical substance/The level of expressed mRNA in the absence of chemical substance: 1.7
Yeast gene YPL140C
  The level of expressed mRNA in the presence of chemical substance/The level of expressed mRNA in the absence of chemical substance: 1.3
Yeast gene YPL194W
  The level of expressed mRNA in the presence of chemical substance/The level of expressed mRNA in the absence of chemical substance: 1.4
Yeast gene YPL223C
  The level of expressed mRNA in the presence of chemical substance/The level of expressed mRNA in the absence of chemical substance: 20.0
Yeast gene YPL240C
  The level of expressed mRNA in the presence of chemical substance/The level of expressed mRNA in the absence of chemical substance: 1.4
Yeast gene YPR005C
  The level of expressed mRNA in the presence of chemical substance/The level of expressed mRNA in the absence of chemical substance: 0.8
Yeast gene YPR026W
  The level of expressed mRNA in the presence of chemical substance/The level of expressed mRNA in the absence of chemical substance: 1.2
